In experiment [1] the target is recombinant human NF-kappaB-inducing kinase (NIK/MAP3K14) (Homo sapiens (Human), UniProt Q99558). Briefly: Inhibition of auto-phosphorylation of recombinant human NIK/MAP3K14 (AlphaScreen). In kind it is biochemical. The conditions noted are these: NIK auto-phosphorylation, 5 μM ATP, 1 nM NIK, 2 h at 25° C.; average of values. The procedure:
Inhibition of auto-phosphorylation of recombinant human NF-kappaB-inducing kinase (NIK/MAP3K14) activity (AlphaScreen®)
NIK/MAP3K14 auto-phosphorylation activity was measured using the AlphaScreen® (αscreen) format (Perkin Elmer). All compounds tested were dissolved in dimethyl sulfoxide (DMSO) and further dilutions were made in assay buffer. The final DMSO concentration was 0.7% (v/v) in assays. The assay buffer was 50 mM Tris pH 7.5 containing 1 mM EGTA (ethylene glycol tetraacetic acid), 1 mM DTT (dithiothreitol), 0.1 mM Na3VO4, 5 mM MgCl2, and 0.01% Tween® 20. The assays were carried out in 384 well Proxiplates (Perkin Elmer). The incubations consisted of the compound, 5 μM Adenosine-5′-triphosphate (ATP), and 1 nM NIK/MAP3K14. Incubations were initiated by the addition of GST-tagged NIK/MAP3K14 enzyme, carried out for 2 h at 25° C. and terminated by addition of stop buffer containing anti-phospho-IKK Ser176/180 antibody. Protein A Acceptor and Glutathione-Donor beads were added before reading using an EnVision® Multilabel Plate Reader (Perkin Elmer). […] IC50's were determined by fitting a sigmoidal curve to % inhibition of control versus Log10 compound concentration.

For experiment [2], the system named is p-IKKα levels in L363 (NIK translocated multiple myeloma) cells. The experiment in a line: Effect of compounds on p-IKKα levels in L363 cells (AlphaLISA SureFire Ultra). In kind it is cell-based, human. The conditions noted are these: Homo sapiens, L-363, 6 h, BAFF stimulated, MG132, 6 h, average of values, read-out: Assay 2 IC50. As for the experimental part: Effect of Compounds on p-IKKα Levels in L363 (NIK Translocated Multiple Myeloma) Cells
All compounds tested were dissolved and serially diluted in DMSO, 1:3 dilution for 11 points in an Echo compatible plate. 100% DMSO was added to columns 12 and 24 of the plate to serve as high and low signal controls. This compound plate was used to spot 20 nL of compound or DMSO into a Greiner 384 well TC plate (781080). The final DMSO concentration was 0.3% (v/v) in cell assays. Human L363 cells (ATCC) were cultured in RPM11640 medium supplemented with GlutaMax, non-essential amino acids, sodium pyruvate and 10% fetal bovine serum. Cells were routinely maintained at densities of […] at 37° C. in a humidified 5% CO2 atmosphere incubator. Cells were passaged twice a week splitting back to obtain the low density. The day before the assay, cells were washed twice in HBSS (Hank's Balanced Salt Solution), resuspended in Dulbecco's Modified Eagle Medium (DMEM)+0.5% IgG and protease free BSA (Jackson Immuno Research Laboratories), +/−250 ng/ml recombinant human B-cell activating factor (BAFF/BLyS/TNFSF13B) and incubated overnight at 37° C. in a humidified 5% CO2 atmosphere (bulk stimulation with or without BAFF). The next day, the cell concentration was adjusted to 1×10^7 cells/ml in DMEM+/−250 ng/ml BAFF+/−10 μM MG132 and plated at 10 μl/well into compound or DMSO spotted 384 well TC plates. Seeded cells were incubated at 37° C. in a humidified 5% CO2 atmosphere for 6 h. After 6 h, the plates were removed from the incubator and cell lysis was achieved by the addition of 2.5 μl 5× lysis buffer containing protease and phosphatase inhibitors, followed by shaking on a plate shaker at room temperature for 15 min. At the end of this incubation, lysed cells were sequentially treated and incubated with acceptor and donor bead mixes according to the manufacturer's protocol for a 1 plate/2-incubation suspension cell assay (AlphaLISA SureFire Ultra p-IKKa (Ser 176/180) Assay Kit (Perkin Elmer). Plates were read using an EnVision® Multilabel Plate Reader (Perkin Elmer). Within an experiment, a concentration response curve for each compound was run in duplicate. The signal obtained in the test wells was normalized using high signal (BAFF stimulated cells, DMSO, MG132) and low signal (unstimulated cells, DMSO) controls. To determine the IC50, a sigmoidal curve was fitted to the plot of % inhibition versus Log10 compound concentration.

Experimental findings from patent US20240199605A1, “SMALL MOLECULAR INHIBITORS OF NF-kB INDUCING KINASE” (Janssen Pharmaceutica NV, priority 2019, published 2024) are described below.

SMILES strings stand for the structures.

Sequence of recombinant human NF-kappaB-inducing kinase (NIK/MAP3K14) (Q99558 whole entry): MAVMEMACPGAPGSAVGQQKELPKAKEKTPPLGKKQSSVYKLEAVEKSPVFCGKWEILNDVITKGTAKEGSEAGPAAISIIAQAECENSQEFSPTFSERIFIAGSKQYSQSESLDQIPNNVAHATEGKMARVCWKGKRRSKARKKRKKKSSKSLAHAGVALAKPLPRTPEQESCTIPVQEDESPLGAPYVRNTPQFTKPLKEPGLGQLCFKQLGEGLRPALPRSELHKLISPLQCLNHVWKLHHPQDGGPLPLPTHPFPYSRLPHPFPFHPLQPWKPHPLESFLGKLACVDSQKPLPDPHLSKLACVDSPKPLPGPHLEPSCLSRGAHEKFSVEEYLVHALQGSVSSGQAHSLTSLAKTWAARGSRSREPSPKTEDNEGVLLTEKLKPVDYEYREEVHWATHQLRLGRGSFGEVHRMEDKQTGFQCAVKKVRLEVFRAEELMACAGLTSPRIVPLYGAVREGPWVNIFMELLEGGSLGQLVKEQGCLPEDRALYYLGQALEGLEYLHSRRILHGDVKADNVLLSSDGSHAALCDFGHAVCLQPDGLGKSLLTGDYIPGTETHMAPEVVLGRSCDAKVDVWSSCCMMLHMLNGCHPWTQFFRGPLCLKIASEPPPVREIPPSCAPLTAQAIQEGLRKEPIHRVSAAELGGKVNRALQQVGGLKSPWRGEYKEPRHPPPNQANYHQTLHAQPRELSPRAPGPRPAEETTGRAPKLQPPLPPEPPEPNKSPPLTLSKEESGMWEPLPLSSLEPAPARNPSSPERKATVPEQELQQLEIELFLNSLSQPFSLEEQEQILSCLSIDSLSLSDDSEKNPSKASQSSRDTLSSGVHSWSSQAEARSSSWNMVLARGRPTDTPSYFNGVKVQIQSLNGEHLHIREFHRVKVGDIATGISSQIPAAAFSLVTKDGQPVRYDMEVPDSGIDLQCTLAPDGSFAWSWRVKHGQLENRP

In the case of `CN1CC[C@](O)(C#Cc2cccc(-c3ncc4ccnc(N)c4n3)c2)C1=O` [Example 2, (S)-3-[2-[3-(8-Aminopyrido[3,4-d]pyrimidin-2-yl)phenyl]ethynyl]-3-hydroxy-1-methyl-pyrrolidin-2-one], the values for the IC50 in experiment [1] and in experiment [2] were 160 nM and > 5000 nM, respectively.

As to `CN1CC[C@@](O)(C#Cc2cccc(-c3nc(N4CCOCC4)c4ccnc(N)c4n3)c2)C1=O` [Example 57, (R)-3-((3-(8-Amino-4-morpholinopyrido[3,4-d]pyrimidin-2-yl)phenyl)ethynyl)-3-hydroxy-1-methylpyrrolidin-2-one], the figures for the IC50 in experiment [1] and in experiment [2] were 1.3 nM and 35 nM, respectively.

For the molecule `CN1CC[C@@](O)(C#Cc2cccc(-c3cc(C(F)F)c4ncnc(N)c4n3)c2)C1=O` [Example 289, (R)-3-((3-(4-Amino-8-(difluoromethyl)pyrido[3,2-d]pyrimidin-6-yl)phenyl)ethynyl)-3-hydroxy-1-methylpyrrolidin-2-one], in experiment [1], the IC50 turned out to be 1.4 nM.

As to `[2H]c1nc(N)c2nc(-c3cccc(C#C[C@@]4(O)CCN(C)C4=O)c3)ccc2n1` [Example 9, (S)-3-((3-(4-Aminopyrido[3,2-d]pyrimidin-6-yl-2-d)phenyl)ethynyl)-3-hydroxy-1-methylpyrrolidin-2-one], in experiment [2], the IC50 turned out to be 670 nM.

With `[2H]c1nc(NS(C)(=O)=O)c2nc(-c3cccc(C#C[C@]4(O)CCN(C)C4=O)c3)ccc2n1` [Example 269, (R)—N-(6-(3-((3-Hydroxy-1-methyl-2-oxopyrrolidin-3-yl)ethynyl)phenyl)pyrido[3,2-d]pyrimidin-4-yl-2-d)methanesulfonamide], the IC50 in experiment [2] came out at 3850 nM.

For the molecule `Cc1ccc(C#C[C@@]2(O)C(=O)N(C)[C@@H]3C[C@@H]32)cc1-c1nc2c(N)ncnc2s1` [Example 318, (1R,4R,5S)-4-((3-(7-Aminothiazolo[5,4-d]pyrimidin-2-yl)-4-methylphenyl)ethynyl)-4-hydroxy-2-methyl-2-azabicyclo[3.1.0]hexan-3-one], in experiment [1], the half-maximal inhibitory concentration (IC50) turned out to be 1 nM.

In the case of `CN1CC[C@@](O)(C#Cc2cccc(-c3ccc4ncncc4n3)c2)C1=O` [Example 223], the IC50 in experiment [2] was > 5000 nM.

Regarding `CN1CC[C@@](O)(C#Cc2cccc(-c3cc(NCC(F)(F)F)c4ncnc(N)c4n3)c2)C1=O` [Example 317, (R)-3-((3-(4-Amino-8-((2,2,2-trifluoroethyl)amino)pyrido[3,2-d]pyrimidin-6-yl)phenyl)ethynyl)-3-hydroxy-1-methylpyrrolidin-2-one], the IC50 in experiment [1] came out at 0.6 nM.

With `Cc1ccc(C#C[C@]2(O)C[C@@H](C)N(C)C2=O)cc1-c1nc2c(N)ncnc2s1` [Example 319, (3R,5R)-3-((3-(7-Aminothiazolo[5,4-d]pyrimidin-2-yl)-4-methylphenyl)ethynyl)-3-hydroxy-1,5-dimethylpyrrolidin-2-one], in experiment [1], the IC50 was 1.5 nM.

For the molecule `[2H]c1nc(NC(C)=O)c2nc(-c3cccc(C#C[C@]4(O)CCN(C)C4=O)c3)ccc2n1` [Example 259, (R)—N-(6-(3-((3-Hydroxy-1-methyl-2-oxopyrrolidin-3-yl)ethynyl)phenyl)pyrido[3,2-d]pyrimidin-4-yl-2-d)acetamide], the IC50 in experiment [2] was determined as 65 nM.

Take `[2H]c1nc(N)c2nc(-c3cccc(C#C[C@@]4(O)C[C@H](C)N(C)C4=O)c3)ccc2n1` [Example 263, (3S,5S)-3-((3-(4-Aminopyrido[3,2-d]pyrimidin-6-yl-2-d)phenyl)ethynyl)-3-hydroxy-1,5-dimethylpyrrolidin-2-one]: in experiment [2], the IC50 turned out to be 4350 nM.

Consider `CN1CC[C@@](O)(C#Cc2cccc(-c3nc4c(N)nccc4[nH]3)c2)C1=O` [Example 59, (R)-3-[2-[3-(4-Amino-1H-imidazo[4,5-c]pyridin-2-yl)phenyl]ethynyl]-3-hydroxy-1-methyl-pyrrolidin-2-one], for which the IC50 in experiment [2] is > 5000 nM.

For `[2H]c1nc(N)c2nc(-c3cccc(C#C[C@]4(O)C[C@@H](C)N(C)C4=O)c3)ccc2n1` [Example 261, (3R,5R)-3-((3-(4-Aminopyrido[3,2-d]pyrimidin-6-yl-2-d)phenyl)ethynyl)-3-hydroxy-1,5-dimethylpyrrolidin-2-one], the IC50 in experiment [2] is 7.7 nM.

In the case of `CN1CC[C@@](O)(C#Cc2cccc(-c3cc(N4CC(C(F)(F)F)C4)c4ncnc(N)c4n3)c2)C1=O` [Example 315, (R)-3-[2-[3-[4-Amino-8-[3-(trifluoromethyl)azetidin-1-yl]pyrido[3,2-d]pyrimidin-6-yl]phenyl]ethynyl]-3-hydroxy-1-methyl-pyrrolidin-2-one], the IC50 in experiment [1] was 5 nM.

With `Cc1cc2cnc(-c3cccc(C#C[C@]4(O)CCN(C)C4=O)c3)nc2c(N)n1` [Example 44, (R)-3-((3-(8-Amino-6-methylpyrido[3,4-d]pyrimidin-2-yl)phenyl)ethynyl)-3-hydroxy-1-methylpyrrolidin-2-one], in experiment [1], the IC50 is 43 nM.

As for `CC(=O)Nc1ncnc2ccc(-c3cccc(C#C[C@]4(O)CCN(C)C4=O)c3)nc12` [Example 238, (R)—N-(6-(3-((3-Hydroxy-1-methyl-2-oxopyrrolidin-3-yl)ethynyl)phenyl)pyrido[3,2-d]pyrimidin-4-yl)acetamide], in experiment [2], the IC50 was 73 nM.

In the case of `CN1CC[C@@](O)(C#Cc2cccc(-c3ccc4ncnc(N)c4n3)c2)C1=O` [Example 12, (R)-3-((3-(4-Aminopyrido[3,2-d]pyrimidin-6-yl)phenyl)ethynyl)-3-hydroxy-1-methylpyrrolidin-2-one], the IC50 in experiment [2] amounted to 3 nM.

Turning to `[2H]c1nc(N)c2nc(-c3cccc(C#C[C@@]4(O)C[C@@H](C)N(C)C4=O)c3)ccc2n1` [Example 264, (3S,5R)-3-((3-(4-Aminopyrido[3,2-d]pyrimidin-6-yl-2-d)phenyl)ethynyl)-3-hydroxy-1,5-dimethylpyrrolidin-2-one], the IC50 in experiment [2] was 660 nM.

Take `Nc1nccc2cnc(-c3cccc(C#CC4(O)CCc5cccnc54)c3)nc12` (stereo in doubt) [Example 46, (S)-7-[2-[3-(8-Aminopyrido[3,4-d]pyrimidin-2-yl)phenyl]ethynyl]-5,6-dihydrocyclopenta[b]pyridin-7-ol]: the IC50 in experiment [1] worked out at 2030 nM.

Take `[2H]c1nc(N)c2nc(-c3cccc(C#C[C@@]4(O)CCCN(C)C4=O)c3)ccc2n1` [Example 199, (S)-3-((3-(4-Aminopyrido[3,2-d]pyrimidin-6-yl-2-d)phenyl)ethynyl)-3-hydroxy-1-methylpiperidin-2-one]: the IC50 in experiment [2] is > 5000 nM.

Turning to `COC1CN(c2ncnc3ccc(-c4cccc(C#C[C@]5(O)CCN(C)C5=O)c4)nc23)C1` [Example 230, (R)-3-Hydroxy-3-((3-(4-(3-methoxyazetidin-1-yl)pyrido[3,2-d]pyrimidin-6-yl)phenyl)ethynyl)-1-methylpyrrolidin-2-one], the IC50 in experiment [2] is 350 nM.

Take `Cc1cc(C#C[C@]2(O)CCN(C)C2=O)cc(-c2nc3c(N)ncnc3s2)c1` [Example 153, (R)-3-((3-(7-Aminothiazolo[5,4-d]pyrimidin-2-yl)-5-methylphenyl)ethynyl)-3-hydroxy-1-methylpyrrolidin-2-one]: the IC50 in experiment [2] was 47 nM.

In the case of `[2H]c1nc(N)c2nc(-c3cccc(C#C[C@]4(O)CCN(C)C4=O)c3)ccc2n1` [Example 8, (R)-3-((3-(4-Aminopyrido[3,2-d]pyrimidin-6-yl-2-d)phenyl)ethynyl)-3-hydroxy-1-methylpyrrolidin-2-one], the IC50 in experiment [2] stood at 3.3 nM.

As to `[2H]c1nc(N)c2nc(-c3cccc(C#C[C@]4(O)C[C@H](C)N(C)C4=O)c3)ccc2n1` [Example 262, (3R,5S)-3-((3-(4-Aminopyrido[3,2-d]pyrimidin-6-yl-2-d)phenyl)ethynyl)-3-hydroxy-1,5-dimethylpyrrolidin-2-one], the IC50 in experiment [2] came to 220 nM.
